Measurements from US8575091B1, “Amylin analogues and pharmaceutical compositions thereof” (Novo Nordisk A/S, priority 2012, dated 2013).
Numbered stars: 1 amine (or outer) side, 2 acyl side, 3 side chain; on linkers, the order of the positions; unused ones are H or OH. Bridge positions count the residues as written; N and C are the ends. Side chains are listed from the residue outwards. Peptide text beside a SMILES is read from it. * marks the point of attachment. C20 diacid = O=C(O)CCCCCCCCCCCCCCCCCCC(=O)*; γGlu = O=C(O)[C@H](CCC(=O)[*:2])N[*:1]; AEEA = NCCOCCOCC(=O)O

Tests used:
[1] = target: T1, human amylin receptor (amylin 3(a) receptor: human calcitonin receptor + RAMP-3) (Homo sapiens, UniProt O60896+P30988); experiment: Assay (II)a functional assay, human amylin receptor (CRE luciferase, BHK cells); type: cell-based
T1 construct: expressed in transfected cells
T1 sequence (P30988 25-474): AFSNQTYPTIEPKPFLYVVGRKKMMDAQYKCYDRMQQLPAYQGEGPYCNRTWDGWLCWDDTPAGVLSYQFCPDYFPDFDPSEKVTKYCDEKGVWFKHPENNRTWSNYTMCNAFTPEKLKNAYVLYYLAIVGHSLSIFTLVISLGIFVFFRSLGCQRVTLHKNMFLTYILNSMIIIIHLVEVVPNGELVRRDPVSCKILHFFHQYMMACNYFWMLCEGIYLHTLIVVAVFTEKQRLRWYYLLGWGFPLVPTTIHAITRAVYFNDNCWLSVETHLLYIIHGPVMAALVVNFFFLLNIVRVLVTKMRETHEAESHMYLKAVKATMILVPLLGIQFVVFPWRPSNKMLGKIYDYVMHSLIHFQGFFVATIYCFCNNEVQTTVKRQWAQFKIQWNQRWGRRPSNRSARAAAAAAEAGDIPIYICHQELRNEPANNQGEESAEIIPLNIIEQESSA
T1 sequence (O60896 24-148 partner): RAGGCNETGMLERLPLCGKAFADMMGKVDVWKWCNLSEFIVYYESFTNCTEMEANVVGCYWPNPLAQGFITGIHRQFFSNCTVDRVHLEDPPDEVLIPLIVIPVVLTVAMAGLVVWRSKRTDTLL

human amylin receptor = target: T2, human amylin receptor (Homo sapiens, UniProt O60896+P30988); experiment: Assay (V) binding to the human amylin receptor (SPA, 125I-rat amylin); details: human binding ratio, included for comparison
T2 construct: expressed in transfected cells
T2 sequence (P30988 25-474): T1 sequence (P30988 25-474)
T2 sequence (O60896 24-148 partner): T1 sequence (O60896 24-148 partner)
Outline: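 SPA competition binding on membranes from Amylin 3(a)/CRE-luc cells, 35 ng/μL membranes with 0.05 mg/well beads. Buffer 50 mM Hepes pH 7.4, 1 mM CaCl2, 5 mM MgCl2, 0.1% OA, 0.02% Tween20. IC50 from one-site competition fit as affinity measure.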

rat amylin receptor = target: T3, rat amylin receptor (Rattus norvegicus, UniProt P32214+Q9JJ73); experiment: Assay (VI) binding to the rat amylin receptor; details: rCTR bind IC50 divided by rAmylin-R bind IC50
T3 construct: expressed in transfected cells; host or cells: BHK tk'ts 13 (transient, FuGENE 6), membranes
T3 sequence (P32214 25-479 isoform P32214-2 limits assumed): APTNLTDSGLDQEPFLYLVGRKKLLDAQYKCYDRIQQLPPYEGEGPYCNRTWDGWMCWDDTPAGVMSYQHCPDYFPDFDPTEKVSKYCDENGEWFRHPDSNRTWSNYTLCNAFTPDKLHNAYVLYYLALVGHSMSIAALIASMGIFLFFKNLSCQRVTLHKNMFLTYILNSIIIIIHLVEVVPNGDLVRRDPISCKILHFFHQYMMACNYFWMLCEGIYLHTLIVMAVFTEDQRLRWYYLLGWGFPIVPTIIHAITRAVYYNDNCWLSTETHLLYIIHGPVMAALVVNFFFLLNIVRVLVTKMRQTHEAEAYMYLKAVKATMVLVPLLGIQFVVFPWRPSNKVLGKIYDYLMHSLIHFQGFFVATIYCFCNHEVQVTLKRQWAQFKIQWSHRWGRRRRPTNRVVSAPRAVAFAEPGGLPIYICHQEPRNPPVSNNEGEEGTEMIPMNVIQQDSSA
T3 sequence (Q9JJ73 23-147 partner): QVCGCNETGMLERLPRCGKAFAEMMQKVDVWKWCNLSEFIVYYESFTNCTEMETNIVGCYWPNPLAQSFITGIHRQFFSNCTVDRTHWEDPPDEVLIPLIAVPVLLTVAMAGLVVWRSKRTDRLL
Method: Assay (VI)—Determination of the Binding to the Rat Amylin Receptor
The assay was performed as described above (Assay (V)—Determination of binding to the human amylin receptor) with the exception that we used membranes prepared from BHK tk'ts 13 cells that were transiently transfected with the rat calcitonin receptor rat RAMP 3 at an equimolar ratio […]. The BHK tk'ts 13 cells were transiently transfected with rat calcitonin receptor using FuGENE® 6 (Roche), according to the manufacturer's recommendations. Cells were grown in DMEM with 10% FBS and 1% Pen/Strep. Approximately 48 hours after transfection, the cells were harvested and membranes were prepared.

[2] = Table 6, human functional selectivity (hCTR EC50 / hAmylin-R EC50)

Row | Structure (SMILES) | Ratio hCT/hAmylin funct. [1, 2] | Ratio hCT/hAmylin funct. ([1]; hCTR funct. EC50 divided by hAmylin-R funct. EC50) | Ratio hCT/hAmylin binding (human amylin receptor) | Ratio rCT/rAmylin binding (rat amylin receptor) | Ratio hCT/hAmylin funct. ([1]; Table 6i, hCTR funct. EC50 / hAmylin-R funct. EC50) | Ratio rCT/rAmylin binding (rat amylin receptor; Table 7b) | Ratio rCT/rAmylin binding (rat amylin receptor; Table 7c)
1 | CC[C@H](C)[C@H](NC(=O)[C@@H]1CCCN1C(=O)CNC(=O)[C@H](Cc1ccccc1)NC(=O)[C@H](CC(N)=O)NC(=O)[C@@H]1CCCN1C(=O)[C@H](CO)NC(=O)[C@H](CO)NC(=O)[C@H](Cc1c[nH]cn1)NC(=O)[C@H](CCCNC(=N)N)NC(=O)[C@H](CC(C)C)NC(=O)[C@H](Cc1ccccc1)NC(=O)[C@H](CCC(=O)O)NC(=O)[C@H](C)NC(=O)[C@H](CC(C)C)NC(=O)[C@H](CCCNC(=N)N)NC(=O)[C@H](CCC(N)=O)NC(=O)[C@@H](NC(=O)[C@H](C)NC(=O)[C@@H]1CSSC[C@H](NC(=O)[C@H](CCCCN)NC(=O)CC[C@H](NC(=O)CCCCCCCCCCCCCCCCCCC(=O)O)C(=O)O)C(=O)N[C@@H](CC(N)=O)C(=O)N[C@@H]([C@@H](C)O)C(=O)N[C@@H](C)C(=O)N[C@@H]([C@@H](C)O)C(=O)N1)[C@@H](C)O)C(=O)N[C@@H](CC(C)C)C(=O)N1CCC[C@H]1C(=O)N1CCC[C@H]1C(=O)N[C@H](C(=O)N[C@@H](CC(N)=O)C(=O)N[C@H](C(=O)NCC(=O)N[C@@H](CO)C(=O)N[C@@H](CC(N)=O)C(=O)N[C@H](C(=O)N1CCC[C@H]1C(N)=O)[C@@H](C)O)C(C)C)[C@@H](C)O [Example 4] ({C20 diacid-γGlu}-KCNTATCATQRLAEFLRHSSPNFGPILPPTNVGSNTP-NH2; disulfide 2-7) | 1.2 | 1.2 | 2.1 | 3.1 | – | – | –
2 | CC(C)C[C@H](NC(=O)[C@H](CCCNC(=N)N)NC(=O)[C@H](CCC(N)=O)NC(=O)[C@@H](NC(=O)[C@H](C)NC(=O)[C@@H]1CSSC[C@H](NC(=O)[C@H](CCCCN)NC(=O)CC[C@H](NC(=O)CCCCCCCCCCCCCCCCCCC(=O)O)C(=O)O)C(=O)N[C@@H](CC(N)=O)C(=O)N[C@@H]([C@@H](C)O)C(=O)N[C@@H](C)C(=O)N[C@@H]([C@@H](C)O)C(=O)N1)[C@@H](C)O)C(=O)N[C@@H](C)C(=O)N[C@@H](CCC(=O)O)C(=O)N[C@@H](Cc1ccccc1)C(=O)N[C@@H](CC(C)C)C(=O)N[C@@H](CCCNC(=N)N)C(=O)N[C@@H](Cc1c[nH]cn1)C(=O)N[C@@H](CO)C(=O)N[C@@H](CO)C(=O)N1CCC[C@H]1C(=O)N[C@@H](CC(N)=O)C(=O)N[C@@H](Cc1ccccc1)C(=O)NCC(=O)N[C@@H](C)C(=O)N1CCC[C@H]1C(=O)N[C@@H](CC(C)C)C(=O)N[C@@H](CO)C(=O)N[C@@H](CO)C(=O)N[C@H](C(=O)N[C@@H](CC(N)=O)C(=O)N[C@H](C(=O)NCC(=O)N[C@@H](CO)C(=O)N[C@@H](CC(N)=O)C(=O)N[C@H](C(=O)N[C@@H](Cc1ccc(O)cc1)C(N)=O)[C@@H](C)O)C(C)C)[C@@H](C)O [Example 7] ({C20 diacid-γGlu}-KCNTATCATQRLAEFLRHSSPNFGAPLSSTNVGSNTY-NH2; disulfide 2-7) | 4.5 | – | – | 42.0 | 4.5 | 42.0 | –
3 | CC[C@H](C)[C@H](NC(=O)[C@H](C)NC(=O)CNC(=O)[C@H](Cc1ccccc1)NC(=O)[C@H](CC(N)=O)NC(=O)[C@@H]1CCCN1C(=O)[C@H](CO)NC(=O)[C@H](CO)NC(=O)[C@H](Cc1c[nH]cn1)NC(=O)[C@H](CCCNC(=N)N)NC(=O)[C@H](CC(C)C)NC(=O)[C@H](Cc1ccccc1)NC(=O)[C@H](CC(N)=O)NC(=O)[C@H](C)NC(=O)[C@H](CC(C)C)NC(=O)[C@H](CCCNC(=N)N)NC(=O)[C@H](CCC(N)=O)NC(=O)[C@@H](NC(=O)[C@H](C)NC(=O)[C@@H]1CSSC[C@H](NC(=O)[C@@H](N)CCCCNC(=O)COCCOCCNC(=O)CC[C@H](NC(=O)CCCCCCCCCCCCCCCCCCC(=O)O)C(=O)O)C(=O)N[C@@H](CC(N)=O)C(=O)N[C@@H]([C@@H](C)O)C(=O)N[C@@H](C)C(=O)N[C@@H]([C@@H](C)O)C(=O)N1)[C@@H](C)O)C(=O)N1CCC[C@H]1C(=O)N[C@@H](CO)C(=O)N[C@@H](CO)C(=O)N[C@H](C(=O)N[C@@H](CC(N)=O)C(=O)N[C@H](C(=O)NCC(=O)N[C@@H](CO)C(=O)N[C@@H](CC(N)=O)C(=O)N[C@H](C(=O)N[C@@H](Cc1ccc(O)cc1)C(N)=O)[C@@H](C)O)C(C)C)[C@@H](C)O [Example 41] | – | – | – | 54.0 | – | 54.0 | 54.0
4 | CC[C@H](C)[C@H](NC(=O)[C@H](C)NC(=O)CNC(=O)[C@H](Cc1ccccc1)NC(=O)[C@H](CC(N)=O)NC(=O)[C@@H]1CCCN1C(=O)[C@H](CO)NC(=O)[C@H](CO)NC(=O)[C@H](Cc1c[nH]cn1)NC(=O)[C@H](CCCNC(=N)N)NC(=O)[C@H](CC(C)C)NC(=O)[C@H](Cc1ccccc1)NC(=O)[C@H](CCCNC(=N)N)NC(=O)[C@H](C)NC(=O)[C@H](CC(C)C)NC(=O)[C@H](CCCNC(=N)N)NC(=O)[C@H](CCC(N)=O)NC(=O)[C@@H](NC(=O)[C@H](C)NC(=O)[C@@H]1CSSC[C@H](NC(=O)[C@@H](N)CCCCNC(=O)COCCOCCNC(=O)CC[C@H](NC(=O)CCCCCCCCCCCCCCCCCCC(=O)O)C(=O)O)C(=O)N[C@@H](CC(N)=O)C(=O)N[C@@H]([C@@H](C)O)C(=O)N[C@@H](C)C(=O)N[C@@H]([C@@H](C)O)C(=O)N1)[C@@H](C)O)C(=O)N1CCC[C@H]1C(=O)N[C@@H](CO)C(=O)N[C@@H](CO)C(=O)N[C@H](C(=O)N[C@@H](CC(N)=O)C(=O)N[C@H](C(=O)NCC(=O)N[C@@H](CO)C(=O)N[C@@H](CC(N)=O)C(=O)N[C@H](C(=O)N[C@@H](Cc1ccc(O)cc1)C(N)=O)[C@@H](C)O)C(C)C)[C@@H](C)O [Example 82] (H-K([AEEA-γGlu-C20 diacid])CNTATCATQRLARFLRHSSPNFGAIPSSTNVGSNTY-NH2; disulfide 2-7 (inferred); N-terminus and C-terminus assumed) | – | – | – | 87.0 | – | 87.0 | 87.0
5 | CC[C@H](C)[C@H](NC(=O)[C@H](C)NC(=O)CNC(=O)[C@H](Cc1ccccc1)NC(=O)[C@H](CC(N)=O)NC(=O)[C@@H]1CCCN1C(=O)[C@H](CO)NC(=O)[C@H](CO)NC(=O)[C@H](Cc1c[nH]cn1)NC(=O)[C@H](CCCNC(=N)N)NC(=O)[C@H](CC(C)C)NC(=O)[C@H](Cc1ccccc1)NC(=O)[C@H](CC(=O)O)NC(=O)[C@H](C)NC(=O)[C@H](CC(C)C)NC(=O)[C@H](CCCNC(=N)N)NC(=O)[C@H](CCC(N)=O)NC(=O)[C@@H](NC(=O)[C@H](C)NC(=O)[C@@H]1CSSC[C@H](NC(=O)[C@@H](N)CCCCNC(=O)CC[C@H](NC(=O)CCCCCCCCCCCCCCCCCCC(=O)O)C(=O)O)C(=O)N[C@@H](CC(N)=O)C(=O)N[C@@H]([C@@H](C)O)C(=O)N[C@@H](C)C(=O)N[C@@H]([C@@H](C)O)C(=O)N1)[C@@H](C)O)C(=O)N1CCC[C@H]1C(=O)N[C@@H](CO)C(=O)N[C@@H](CO)C(=O)N[C@H](C(=O)N[C@@H](CC(N)=O)C(=O)N[C@H](C(=O)NCC(=O)N1CCC[C@H]1C(=O)N[C@@H](CCC(=O)O)C(=O)N[C@H](C(=O)N[C@@H](Cc1ccc(O)cc1)C(N)=O)[C@@H](C)O)C(C)C)[C@@H](C)O [Example 123] (H-K([γGlu-C20 diacid])CNTATCATQRLADFLRHSSPNFGAIPSSTNVGPETY-NH2; disulfide 2-7 (inferred); N-terminus and C-terminus assumed) | 3.9 | – | – | 62.0 | – | 62.0 | –
